This is an account of results in paper PMC7321065, “Discovery of New Schiff Bases Tethered Pyrazole Moiety: Design, Synthesis, Biological Evaluation, and Molecular Docking Study as Dual Targeting DHFR/DNA Gyrase Inhibitors with Immunomodulatory Activity” (Molecules, 2020).

Structures are written as SMILES.

In one series the test system is Pseudomonas aeruginosa. Description: Inhibition zone, agar plate diffusion. Type of series: cell-based. The following applies: Pa, mm ± standard deviation, sample at 0.5 mg/mL, read-out: Inhibition zone (IZ). In a few lines: (§1)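 Compounds in DMSO, with DMSO as negative control, were tested at 0.5 mg/mL in agar wells cut 10 mm wide.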
The subject of a further series is Enterococcus faecalis. Description: Inhibition zone, agar plate diffusion. The note with it: Ef, mm ± standard deviation, sample at 0.5 mg/mL, read-out: Inhibition zone (IZ). Type of series: cell-based. In a few lines: as §1
The subject of a further series is Escherichia coli. Kind of series: Inhibition zone, agar plate diffusion. Type of series: cell-based. The following applies: Ec, mm ± standard deviation, sample at 0.5 mg/mL, read-out: Inhibition zone (IZ). In a few lines: as §1
The subject of a further series is Bacillus subtilis. Description: Inhibition zone, agar plate diffusion. The class given is cell-based. The note with it: Bs, mm ± standard deviation, sample at 0.5 mg/mL, read-out: Inhibition zone (IZ). In outline:
as §1

The test system of another series is Salmonella typhi. Kind of series: Inhibition zone, agar plate diffusion. The class given is cell-based. The following applies: Salmonella enterica, St, mm ± standard deviation, sample at 0.5 mg/mL, read-out: Inhibition zone (IZ). In a few lines:
as §1

A further series concerns Candida albicans. Description: Inhibition zone, agar plate diffusion. Type of series: cell-based. The note with it: Ca, mm ± standard deviation, sample at 0.5 mg/mL, read-out: Inhibition zone (IZ). In outline: as §1
Another series relates to Fusarium oxysporum. Description: Inhibition zone, agar plate diffusion. Type of series: cell-based. The following applies: Fo, mm ± standard deviation, sample at 0.5 mg/mL, read-out: Inhibition zone (IZ). In a few lines: as §1
The subject of a further series is Staphylococcus aureus. Kind of series: Inhibition zone, agar plate diffusion. Type of series: cell-based. The following applies: Sa, mm ± standard deviation, sample at 0.5 mg/mL, read-out: Inhibition zone (IZ). In outline:
as §1

Broadly, the melting point is the temperature of the solid-liquid transition. In turn, `COc1ccc(Nc2n[nH]c(N=Cc3c(C)n(C)n(-c4ccccc4)c3=O)c2C(N)=O)cc1` [6a, 5-((1,5-Dimethyl-3-oxo-2-phenyl-2,3-dihydro-1H-pyrazol-4-yl)methyleneamino)-3-(p-methoxyphenylamino)-1H-pyrazole-4-carboxamide] yielded a melting point of 274 to 276 °C. For the same compound, in the series with Pseudomonas aeruginosa, the zone of inhibition at 500 µg/mL is 20 ± 0.15 mm. For the same compound, the zone of inhibition at 500 µg/mL in the series on Enterococcus faecalis was determined as 21 ± 0.11 mm. Moreover, the zone of inhibition at 500 µg/mL in the series with Escherichia coli was determined as 24 ± 0.2 mm. For the same compound, in the series on Bacillus subtilis, the zone of inhibition at 500 µg/mL is 21 ± 0.4 mm. The zone of inhibition at 500 µg/mL in the series with Salmonella typhi came to 18 ± 0.16 mm. For the same compound, in the series on Candida albicans, the zone of inhibition at 500 µg/mL worked out at 22 ± 0.35 mm. In the series on Fusarium oxysporum, the zone of inhibition at 500 µg/mL came to 13 ± 0.3 mm. Moreover, the zone of inhibition at 500 µg/mL with Staphylococcus aureus was 25 ± 0.31 mm.
The compound `COc1ccc(Nc2n[nH]c(N=Cc3cc(OC)c(OC)c(OC)c3)c2C(=O)Nc2ccc(C)cc2)cc1` [9c, 3-(p-Methoxyphenylamino)-N-p-tolyl-5-(3,4,5-trimethoxybenzylideneamino)-1H-pyrazole-4-carboxamide] showed a melting point of 234 to 236 °C. Also, the zone of inhibition at 500 µg/mL with Pseudomonas aeruginosa was under 8 mm. In addition, the zone of inhibition at 500 µg/mL in the series with Enterococcus faecalis turned out to be 21 ± 0.72 mm. Also, the zone of inhibition at 500 µg/mL with Escherichia coli was 23 ± 0.44 mm. Also, in the series with Bacillus subtilis, the zone of inhibition at 500 µg/mL was 22 ± 0.18 mm. Further, the zone of inhibition at 500 µg/mL in the series on Salmonella typhi worked out at 23 ± 0.33 mm. Moreover, the zone of inhibition at 500 µg/mL with Candida albicans worked out at 21 ± 0.5 mm. In addition, in the series with Fusarium oxysporum, the zone of inhibition at 500 µg/mL came out at 19 ± 0.28 mm. Further, the zone of inhibition at 500 µg/mL in the series on Staphylococcus aureus was found to be 22 ± 0.34 mm.
For the compound `COc1ccc(Nc2n[nH]c(N=Cc3cc(OC)c(OC)c(OC)c3)c2C(N)=O)cc1` [9a, 3-(p-Methoxyphenylamino)-5-(3,4,5-trimethoxybenzylideneamino)-1H-pyrazole-4-carboxamide], the melting point lay within 222 to 224 °C. Further, in the series with Pseudomonas aeruginosa, the zone of inhibition at 500 µg/mL was determined as 17 ± 0.2 mm. In the series with Enterococcus faecalis, the zone of inhibition at 500 µg/mL was 19 ± 0.14 mm. For the same compound, the zone of inhibition at 500 µg/mL in the series on Escherichia coli was 22 ± 0.18 mm. Further, in the series on Bacillus subtilis, the zone of inhibition at 500 µg/mL is 25 ± 0.21 mm. Besides, the zone of inhibition at 500 µg/mL in the series on Salmonella typhi came to 20 ± 0.33 mm. Moreover, the zone of inhibition at 500 µg/mL with Candida albicans is 22 ± 0.19 mm. Further, in the series with Fusarium oxysporum, the zone of inhibition at 500 µg/mL was 19 ± 0.55 mm. Also, in the series on Staphylococcus aureus, the zone of inhibition at 500 µg/mL was found to be 21 ± 0.17 mm.
`COc1ccc(Nc2n[nH]c(N=Cc3cc(OC)c(OC)c(OC)c3)c2C(=O)Nc2ccc(Cl)cc2)cc1` [9d, N-(p-Chlorophenyl)-3-(p-methoxyphenylamino)-5-(3,4,5-trimethoxybenzylideneamino)-1H-pyrazole-4-carboxamide] showed a melting point of 213 to 215 °C. In the series with Pseudomonas aeruginosa, the zone of inhibition at 500 µg/mL was under 8 mm. In the series on Enterococcus faecalis, the zone of inhibition at 500 µg/mL is under 8 mm. In the series on Escherichia coli, the zone of inhibition at 500 µg/mL amounted to 15 ± 0.96 mm. In addition, the zone of inhibition at 500 µg/mL in the series on Bacillus subtilis was 18 ± 0.12 mm. In the series with Salmonella typhi, the zone of inhibition at 500 µg/mL amounted to 12 ± 0.61 mm. Further, in the series with Candida albicans, the zone of inhibition at 500 µg/mL worked out at 18 ± 0.2 mm. Besides, in the series on Fusarium oxysporum, the zone of inhibition at 500 µg/mL was 14 ± 0.38 mm. The zone of inhibition at 500 µg/mL with Staphylococcus aureus was found to be 16 ± 0.54 mm.
